According to patent US8802597B2, “Herbicidal pyrimidines” (E I du Pont de Nemours and Company, priority 2003, dated 2014):

What was measured:
Experiment in all cases: Test D pre/postemergence
Assay type in all cases: in vivo
Conditions in all cases: Postemergence, scale 0 to 100 (100 = complete control)
[1] = system: Russian thistle (Salsola kali)
Source text: (§1) Seeds of plant species selected from catchweed bedstraw (galium; Galium aparine), common chickweed (Stellaria media), kochia (Kochia scoparia), lambsquarters (Chenopodium album), pigweed (Amaranthus retroflexus), Russian thistle (Salsola kali), wild buckwheat (Polygonum convolvulus), wild mustard (Sinapis arvensis), winter barley (Hordeum vulgare), and wheat (Triticum aestivum) were planted and treated preemergence with test chemicals formulated in a non-phytotoxic solvent mixture which included a surfactant.
(§2) At the same time, plants selected from these crop and weed species were treated with postemergence applications of some of the test chemicals formulated in the same manner. Plants ranged in height from 2 to 18 cm (1- to 4-leaf stage) for postemergence treatments. Treated plants and controls were maintained in a controlled growth environment for 15 to 25 days after which time all species were compared to controls and visually evaluated. Plant response ratings, summarized in Table D, are based on a scale of 0 to 100 where 0 is no effect and 100 is complete control. A dash (-) response means no test result.

[2] = system: catchweed bedstraw (galium; Galium aparine)
Source text: as §1, §2

[3] = system: common chickweed (Stellaria media)
Source text: as §1, §2

kochia (Kochia scoparia) = system: kochia (Kochia scoparia)
Source text: as §1, §2

[4] = system: lambsquarters (Chenopodium album)
Source text: as §1, §2

[5] = system: pigweed (Amaranthus retroflexus)
Source text: as §1, §2

[6] = system: wheat (Triticum aestivum)
Source text: as §1, §2

[7] = system: wild buckwheat (Polygonum convolvulus)
Source text: as §1, §2

[8] = system: wild mustard (Sinapis arvensis)
Source text: as §1, §2

CCOC(=O)C(OC(C)=O)c1nc(C2CC2)nc(N)c1Br (stereo not drawn) [Compound 47]
Plant response rating, Russian Thistle ([1]; 31 g ai/ha): 45 | Plant response rating, Russian Thistle ([1]; 62 g ai/ha): 55 | Plant response rating, Russian Thistle ([1]; 125 g ai/ha): 65 | Plant response rating, Russian Thistle ([1]; 250 g ai/ha): 70 | Plant response rating, Galium ([2]; 31 g ai/ha): 65 | Plant response rating, Galium ([2]; 62 g ai/ha): 75 | Plant response rating, Galium ([2]; 125 g ai/ha): 80 | Plant response rating, Galium ([2]; 250 g ai/ha): 98 | Plant response rating, Chickweed ([3]; 31 g ai/ha): 35 | Plant response rating, Chickweed ([3]; 62 g ai/ha): 60 | Plant response rating, Chickweed ([3]; 125 g ai/ha): 65 | Plant response rating, Chickweed ([3]; 250 g ai/ha): 70 | Plant response rating, Kochia (kochia (Kochia scoparia); 31 g ai/ha): 45 | Plant response rating, Kochia (kochia (Kochia scoparia); 62 g ai/ha): 50 | Plant response rating, Kochia (kochia (Kochia scoparia); 125 g ai/ha): 65 | Plant response rating, Kochia (kochia (Kochia scoparia); 250 g ai/ha): 75 | Plant response rating, Lambsquarters ([4]; 31 g ai/ha): 35 | Plant response rating, Lambsquarters ([4]; 62 g ai/ha): 35 | Plant response rating, Lambsquarters ([4]; 125 g ai/ha): 40 | Plant response rating, Lambsquarters ([4]; 250 g ai/ha): 45 | Plant response rating, Pigweed ([5]; 31 g ai/ha): 35 | Plant response rating, Pigweed ([5]; 62 g ai/ha): 50 | Plant response rating, Pigweed ([5]; 125 g ai/ha): 55 | Plant response rating, Pigweed ([5]; 250 g ai/ha): 65 | Plant response rating, Wheat ([6]; 31 g ai/ha): 30 | Plant response rating, Wheat ([6]; 62 g ai/ha): 35 | Plant response rating, Wheat ([6]; 125 g ai/ha): 35 | Plant response rating, Wheat ([6]; 250 g ai/ha): 45 | Plant response rating, Buckwheat, Wild ([7]; 31 g ai/ha): 60 | Plant response rating, Buckwheat, Wild ([7]; 62 g ai/ha): 65 | Plant response rating, Buckwheat, Wild ([7]; 125 g ai/ha): 65 | Plant response rating, Buckwheat, Wild ([7]; 250 g ai/ha): 70 | Plant response rating, Mustard, Wild ([8]; 31 g ai/ha): 55 | Plant response rating, Mustard, Wild ([8]; 62 g ai/ha): 60 | Plant response rating, Mustard, Wild ([8]; 125 g ai/ha): 65 | Plant response rating, Mustard, Wild ([8]; 250 g ai/ha): 70
